Values of other authors in patent publication US8298573B2, “Stable sterile filterable liposomal encapsulated taxane and other antineoplastic drugs” (priority 2003, dated 2012).

solubility in water: extremely low
SMILES: CC(=O)O[C@H]1C(=O)[C@@]2(C)[C@H]([C@H](OC(=O)c3ccccc3)[C@]3(O)C[C@H](OC(=O)[C@H](O)[C@@H](NC(=O)c4ccccc4)c4ccccc4)C(C)=C1C3(C)C)[C@]1(OC(C)=O)CO[C@@H]1C[C@@H]2O [paclitaxel]
